We go through 2 molecules from patent publication US10500198B2, “Bis-benzylidine piperidone proteasome inhibitor with anticancer activity” (The Johns Hopkins University, priority 2013, dated 2019).

Structures are written as SMILES.

In assay [1] the test system is NCI-H929-GFP-luc human tumor cells. The assay is described as follows: NCI-H929 MM tumor in NOG mice. The assay is classed as in vivo, mouse. As to conditions: 20 mg/kg/day i.p., 7 days. The source says: Prior to and at the end of the treatment, mice were imaged for bioluminescence. […] The mice were imaged before and at the end of the treatment for bioluminescence levels. We have previously described the susceptibility of human ovarian cancer lines to proteasome inhibition. […] Prior to and 7 and 14 days after initiation of treatment, the mice were imaged for luciferase activity.
For TC-1 tumors, C57BL/6 mice (8/group) were challenged subcutaneously with 5×10^4 TC-1 cells/mice. Tumors grew for approximately 7 days until they were palpable, whereupon the mice were weighed and treatment was initiated. Tumor size was measured with a digital caliper and calculated based on the formula: [largest diameter×(perpendicular diameter)2]π/6. Nude mice (8 per group) were inoculated with 1×10^6 EΩ-Luciferase cells i.p. in 100 μL PBS. At day 3 mice were imaged for basal level luminescence expression. […] NOG mice (5 per group) were inoculated with 1×10^6 NCI-H929-GFP-Luc cells i.v., and after 4 weeks, mice were imaged for their luciferase activity and divided into two groups.

Assay [2] has as its system U266 cells. The assay is described as follows: Active caspase-3 by FACS. The assay is classed as cell-based. To be noted: 0.5 μM, 8 h. Here is the method:
U266 cells were treated with RA195 (0.5 μM) and Bz(0.5 μM) for the period of 8 h. Cells were stained for PE-conjugated Caspase-3 antibody and measured active caspase-3 by FACS.
On the technique in general: A flow cytometer gives signals particle by particle.

`Cl.N[C@@H](Cc1ccccc1)C(=O)N1CC(=Cc2ccc(Cl)c(Cl)c2)C(=O)C(=Cc2ccc(Cl)c(Cl)c2)C1` [RA190, 3,5-bis(3,4-dichlorobenzylidene)-1-(S-2-amino-3-phenyl)-piperidin-4-one-HCl salt]: in assay [1], the “antitumor activity (bioluminescence)” value is on record as “potent antitumor activity”.

Turning to `Cl.NCCCC[C@H](NC(=O)OCC1c2ccccc2-c2ccccc21)C(=O)N1C/C(=C\c2ccc(Cl)c(Cl)c2)C(=O)/C(=C/c2ccc(Cl)c(Cl)c2)C1` [RA195], the “active caspase-3” value in assay [2] was “caused an increase in caspase-3 expression”.
